Reference: patent US8269026B2, “Lupane derivatives useful for treating HIV” (priority 2008, dated 2012)

Each compound was assayed on HIV-1 (HIVIIIB) replication in MT2 cell line (assay: HIV-1 replication in MT2 cell line with and without 30% human serum (viral RT activity in supernatant)). Conditions: Human immunodeficiency virus 1, MT2 cells, with 30% human serum, average IC50 if tested more than once, read-out: MT2 (HIVIIIB) with HS 30% IC50 range.
Format: cell-based
Protocol: HIV-1 Replication in MT2 cell line with and without 30% human serum: The cells are infected at a Multiciplicity of Infection (MOI) of 0.5 for 3 h and then washed twice with complete media to remove residual virus. Cells are then resuspended at 0.5×10^6/ml in complete medium (RPMI, 10% FBS, 1% sodium pyruvate), and seeded into 96-well plates (6.25×10^4/well). The cells are cultured in the presence or absence of various concentrations of test compounds in serial dilutions for 3 days at 37° C. The test compounds are serially diluted in complete medium supplemented or not with 30% human serum. After 3 days, 100 μL of cultured medium with cells are replaced with 120 μL of freshly diluted test compounds in complete medium containing or not 30% Human serum. The level of HIV-1 replication is determined at days 5 after infection by the presence of viral RT activity in harvested supernatant fluid. The IC50 and IC90 values for the virus replication are determined by using GRAPHPAD PRISM software.
The IC50 of the compounds tested in accordance with the HIV replication activity assay MT2 (HIVIIIB) are represented in Table 1.

SMILES	IC50 [nM]
Cc1ncccc1C(=O)N[C@@]12CC[C@]3(C)[C@H](CC[C@@H]4[C@@]5(C)CC[C@H](OC(=O)CC(C)(C)C(=O)O)C(C)(C)[C@@H]5CC[C@]43C)C1=C(C(C)C)C(=O)C2 [19-46, 3β-O-(3′,3′-Dimethylsuccinyl)-17β-(2-methylpyridin-3-yl)amido-21-oxolup-18-ene]	< 199
CC(C)C1=C2C3CCC4[C@@]5(C)CC[C@H](OC(=O)CC(C)(C)C(=O)O)C(C)(C)C5CC[C@@]4(C)[C@]3(C)CC[C@@]2(NC(=O)NC(C)(C)c2ccccc2)CC1=O (stereo partly drawn) [17-63, 3β-O-(3′,3′-Dimethylsuccinyl)-17β-[N′-(1-methyl-1-phenyl-ethyl)-ureido]-21-oxolup-18-ene]	< 199
Cc1nc(C(=O)N[C@@]23CC[C@]4(C)C(CCC5[C@@]6(C)CC[C@H](OC(=O)CC(C)(C)C(=O)O)C(C)(C)C6CC[C@]54C)C2=C(C(C)C)C(=O)C3)cs1 (stereo partly drawn) [19-72, 3β-O-(3′,3′-Dimethylsuccinyl)-17β-(2-methyl-1,3-thiazole-4-amido)-21-oxolup-18-ene]	< 199
CC(C)C1=C2C3CCC4[C@@]5(C)CC[C@H](OC(=O)CC(C)(C)C(=O)O)C(C)(C)C5CC[C@@]4(C)[C@]3(C)CC[C@@]2(NC(=O)c2nnc(C(C)C)o2)CC1=O (stereo partly drawn) [19-84, 3β-O-(3′,3′-Dimethylsuccinyl)-17β-(5-isopropyl-[1,3,4]-oxadiazole-2-amido)-21-oxolup-18-ene]	< 199
CC(C)C1=C2C3CCC4[C@@]5(C)CC[C@H](OC(=O)CC(C)(C)C(=O)O)C(C)(C)C5CC[C@@]4(C)[C@]3(C)CC[C@@]2(NC(=O)NC2(c3ccccc3)CC2)CC1=O (stereo partly drawn) [17-66, 3β-O-(3′,3′-Dimethylsuccinyl)-17β-[N′-(1-phenyl-cyclopropyl)-ureido]-21-oxolup-18-ene]	< 199
CC(C)C1=C2[C@H]3CC[C@@H]4[C@@]5(C)CC[C@H](OC(=O)CC(C)(C)C(=O)O)C(C)(C)[C@@H]5CC[C@@]4(C)[C@]3(C)CC[C@@]2(NC(=O)c2ccn(C)n2)CC1=O [19-17, 3β-O-(3′,3′-Dimethylsuccinyl)-17β-(1-methyl-1H-pyrazole-3-amido)-21-oxolup-18-ene]	< 199
CC(C)C1=C2[C@H]3CC[C@@H]4[C@@]5(C)CC[C@H](OC(=O)CC(C)(C)C(=O)O)C(C)(C)[C@@H]5CC[C@@]4(C)[C@]3(C)CC[C@@]2(NC(=O)[C@H]2CCCN2C)CC1=O [19-55]	< 199
CC(C)C1=C2C3CCC4[C@@]5(C)CC[C@H](OC(=O)CC(C)(C)C(=O)O)C(C)(C)C5CC[C@@]4(C)[C@]3(C)CC[C@@]2(NC(=O)N[C@H](C)C2CCCCC2)CC1=O (stereo partly drawn) [17-55, 3β-O-(3′,3′-Dimethylsuccinyl)-17β-[N′-((R)-1-cyclohexyl-ethyl)ureido]-21-oxolup-18-ene]	< 199
CC(C)C1=C2[C@H]3CC[C@@H]4[C@@]5(C)CC[C@H](OC(=O)CC(C)(C)C(=O)O)C(C)(C)[C@@H]5CC[C@@]4(C)[C@]3(C)CC[C@@]2(NC(=O)N2CCN(C(=O)OC(C)(C)C)CC2)CC1=O [17-14, 3β-O-(3′,3′-Dimethylsuccinyl)-17β-[(4-tert-butyloxycarbonyl-piperazine-1-carbonyl)-amino]-21-oxolup-18-ene]	< 199
CC(C)C1=C2C3CCC4[C@@]5(C)CC[C@H](OC(=O)CC(C)(C)C(=O)O)C(C)(C)C5CC[C@@]4(C)[C@]3(C)CC[C@@]2(NC(=O)N2CC[C@@H](N)C2)CC1=O (stereo partly drawn) [17-42, 3β-O-(3′,3′-Dimethylsuccinyl)-17β-[((R)-3-amino-pyrrolidine-1-carbonyl)-amino]-21-oxolup-18-ene]	200 to 999
CC(C)C1=C2C3CCC4[C@@]5(C)CC[C@H](OC(=O)CC(C)(C)C(=O)O)C(C)(C)C5CC[C@@]4(C)[C@]3(C)CC[C@@]2(NC(=O)c2nnc(-c3ccccc3)o2)CC1=O (stereo partly drawn) [19-63, 3β-O-(3′,3′-Dimethylsuccinyl)-17β-(5-phenyl-[1,3,4]oxadiazole-2-amido)-21-oxolup-18-ene]	< 199
CC(C)C1=C2C3CCC4[C@@]5(C)CC[C@H](OC(=O)CC(C)(C)C(=O)O)C(C)(C)C5CC[C@@]4(C)[C@]3(C)CC[C@@]2(NC(=O)NC2CCN(C)CC2)CC1=O (stereo partly drawn) [17-30, 3β-O-(3′,3′-Dimethylsuccinyl)-17β-[N′-(1-methyl-piperidin-4-yl)-ureido]-21-oxolup-18-ene]	< 199
CC(C)C1=C2C3CCC4[C@@]5(C)CC[C@H](OC(=O)CC(C)(C)C(=O)O)C(C)(C)C5CC[C@@]4(C)[C@]3(C)CC[C@@]2(NC(=O)NCc2cccs2)CC1=O (stereo partly drawn) [17-64, 3β-O-(3′,3′-Dimethylsuccinyl)-17β-[N′-(thiophen-2-ylmethyl)-ureido]-21-oxolup-18-ene]	< 199
CC(C)C1=C2C3CCC4[C@@]5(C)CC[C@H](OC(=O)CC(C)(C)C(=O)O)C(C)(C)C5CC[C@@]4(C)[C@]3(C)CC[C@@]2(NC(=O)N[C@@H](C)C(F)(F)F)CC1=O (stereo partly drawn) [17-50, 3β-O-(3′,3′-Dimethylsuccinyl)-17β-[N′-((S)-2,2,2-trifluoro-1-methyl-ethyl)-ureido]-21-oxolup-18-ene]	< 199
CC(C)C1=C2C3CCC4[C@@]5(C)CC[C@H](OC(=O)CC(C)(C)C(=O)O)C(C)(C)C5CC[C@@]4(C)[C@]3(C)CC[C@@]2(NC(=O)OC2CCS(=O)(=O)CC2)CC1=O (stereo partly drawn) [20-15, 3β-O-(3′,3′-Dimethylsuccinyl)-17β-(1,1-dioxo-tetrahydro-thiopyran-4-oxycarbonylamino)-21-oxolup-18-ene]	< 199
Cc1nc(C(=O)N[C@@]23CC[C@]4(C)C(CCC5[C@@]6(C)CC[C@H](OC(=O)CC(C)(C)C(=O)O)C(C)(C)C6CC[C@]54C)C2=C(C(C)C)C(=O)C3)co1 (stereo partly drawn) [19-76, 3β-O-(3′,3′-Dimethylsuccinyl)-17β-(2-methyl-1,3-oxazole-4-amido)-21-oxolup-18-ene]	< 199
CC(C)C1=C2[C@H]3CC[C@@H]4[C@@]5(C)CC[C@H](OC(=O)CC(C)(C)C(=O)O)C(C)(C)[C@@H]5CC[C@@]4(C)[C@]3(C)CC[C@@]2(NC(=O)N2CCOCC2)CC1=O [17-13, 3β-O-(3′,3′-Dimethylsuccinyl)-17β-[(morpholine-4-carbonyl)-amino]-21-oxolup-18-ene]	< 199
CC(C)C1=C2C3CCC4[C@@]5(C)CC[C@H](OC(=O)CC(C)(C)C(=O)O)C(C)(C)C5CC[C@@]4(C)[C@]3(C)CC[C@@]2(NC(=O)c2cncs2)CC1=O (stereo partly drawn) [19-28, 3β-O-(3′,3′-Dimethylsuccinyl)-17β-(1,3-thiazole-5-amido)-21-oxolup-18-ene]	< 199
CC(C)C1=C2C3CCC4[C@@]5(C)CC[C@H](OC(=O)CC(C)(C)C(=O)O)C(C)(C)C5CC[C@@]4(C)[C@]3(C)CC[C@@]2(NC(=O)c2cn[nH]c2)CC1=O (stereo partly drawn) [19-82, 3β-O-(3′,3′-Dimethylsuccinyl)-17β-(1H-pyrazole-4-amido)-21-oxolup-18-ene]	< 199
CC(C)C1=C2C3CCC4[C@@]5(C)CC[C@H](OC(=O)CC(C)(C)C(=O)O)C(C)(C)C5CC[C@@]4(C)[C@]3(C)CC[C@@]2(NC(=O)Cn2ccnc2)CC1=O (stereo partly drawn) [19-60, 3β-O-(3′,3′-Dimethylsuccinyl)-17β-(1-imidazole-acetamido)-21-oxolup-18-ene]	< 199
CC(C)C1=C2C3CCC4[C@@]5(C)CC[C@H](OC(=O)CC(C)(C)C(=O)O)C(C)(C)C5CC[C@@]4(C)[C@]3(C)CC[C@@]2(NC(=O)OC2CCNCC2)CC1=O (stereo partly drawn) [20-16, 3β-O-(3′,3′-Dimethylsuccinyl)-17β-(piperidine-4-oxycarbonylamino)-21-oxolup-18-ene]	< 199

Same assay, conditions: Human immunodeficiency virus 1, MT2 cells, without human serum, average IC50 if tested more than once, read-out: MT2 (HIVIIIB) IC50 range

SMILES	IC50 [nM]
CC(C)C1=C2[C@H]3CC[C@@H]4[C@@]5(C)CC[C@H](OC(=O)CC(C)(C)C(=O)O)C(C)(C)[C@@H]5CC[C@@]4(C)[C@]3(C)CC[C@@]2(NC(=O)N2CCN(C(=O)OC(C)(C)C)CC2)CC1=O [17-14, 3β-O-(3′,3′-Dimethylsuccinyl)-17β-[(4-tert-butyloxycarbonyl-piperazine-1-carbonyl)-amino]-21-oxolup-18-ene]	< 199
